In PubChem BioAssay AID330 (DTP/NCI, 2004):
Several values for one entry are separate records, joined by “and”; a condition that tells them apart may be missing. Equal entries are not always repeated. Toxic doses and inconclusive results are not listed. How the source made its calls: active means survival T/C of 150% or more; inactive means T/C below 125% in these data.

Test system: P388 leukemia ip, CD2F1 mice, survival T/C
Experiment: NCI In Vivo Anticancer Drug Screen. Data for tumor model P388 Leukemia (intraperitoneal) in CD2F1 (CDF1) mice
Conditions: endpoint: median survival time, higher = longer survival
Procedure, shortened: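 Mice carrying the transplanted tumor received test compound or vehicle. Survival was recorded in each group, and the value is the treated-group measurement divided by that of the vehicle-treated control group.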

[1] = dose: 50.0 mg/kg/injection, schedule: Q01DX005 (ip), vehicle: Klucel (hydroxypropylcellulose) (HPC)
[2] = dose: 100.0 mg/kg/injection, schedule: Q01DX005 (ip), vehicle: Klucel (hydroxypropylcellulose) (HPC)
[3] = dose: 200.0 mg/kg/injection, schedule: Q01DX005 (ip), vehicle: Klucel (hydroxypropylcellulose) (HPC)
[4] = dose: 25.0 mg/kg/injection, schedule: Q01DX005 (ip), vehicle: Klucel (hydroxypropylcellulose) (HPC)
[5] = dose: 50.0 mg/kg/injection, schedule: Q01DX005 (ip), vehicle: saline with Tween-80
[6] = dose: 100.0 mg/kg/injection, schedule: Q01DX005 (ip), vehicle: saline with Tween-80
[7] = dose: 200.0 mg/kg/injection, schedule: Q01DX005 (ip), vehicle: saline with Tween-80
[8] = dose: 100.0 mg/kg/injection, schedule: Q01DX009 (ip), vehicle: Klucel (hydroxypropylcellulose) (HPC)
[9] = dose: 50.0 mg/kg/injection, schedule: Q01DX009 (ip), vehicle: Klucel (hydroxypropylcellulose) (HPC)

Measured: T/C

O=S(=O)(OI(O)c1ccccc1)c1ccccc1
inactive: dose: 12.5 mg/kg/injection, schedule: Q01DX009 (ip), vehicle: water 98 % of control | dose: 25.0 mg/kg/injection, schedule: Q01DX009 (ip), vehicle: water 116 % of control | dose: 50.0 mg/kg/injection, schedule: Q01DX009 (ip), vehicle: water 105 % of control and 113 % of control

CCOC(=O)CN(C)C(c1ccccc1)c1cccs1 (configuration not stated)
inactive: dose: 100.0 mg/kg/injection, schedule: Q04DX002 (ip), vehicle: Klucel (hydroxypropylcellulose) (HPC) 102 % of control | dose: 200.0 mg/kg/injection, schedule: Q04DX002 (ip), vehicle: Klucel (hydroxypropylcellulose) (HPC) 105 % of control

C[C@@]1(N=Cc2ccccc2)C(=O)NC(=O)C2=CN(Cc3ccccc3)C=C[C@@H]21
inactive: [1] 102 % of control | [2] 99 % of control | [3] 89 % of control

N#[O+].O.O=N[O-].O=N[O-].[NH2-].[NH2-].[Ru+2]
inactive: dose: 12.5 mg/kg/injection, schedule: Q04DX003 (ip), vehicle: water 110 % of control | dose: 25.0 mg/kg/injection, schedule: Q04DX003 (ip), vehicle: water 111 % of control | dose: 50.0 mg/kg/injection, schedule: Q04DX003 (ip), vehicle: water 118 % of control | dose: 100.0 mg/kg/injection, schedule: Q04DX003 (ip), vehicle: water 111 % of control | dose: 200.0 mg/kg/injection, schedule: Q04DX003 (ip), vehicle: water 102 % of control

C=CN1CCCC1=O
inactive: dose: 100.0 mg/kg/injection, schedule: Q04DX003 (ip), vehicle: saline 104 % of control | dose: 200.0 mg/kg/injection, schedule: Q04DX003 (ip), vehicle: saline 100 % of control | dose: 0.25 % in 0.5 ml injection vol, schedule: Q01DX009 (ip), vehicle: water 100 % of control | dose: 400.0 mg/kg/injection, schedule: Q04DX003 (ip), vehicle: saline 100 % of control | dose: 0.5 % in 0.5 ml injection vol, schedule: Q01DX009 (ip), vehicle: water 107 % of control | dose: 1.0 % in 0.5 ml injection vol, schedule: Q01DX009 (ip), vehicle: water 100 % of control and 102 % of control | dose: 2.0 % in 0.5 ml injection vol, schedule: Q01DX009 (ip), vehicle: water 100 % of control and 98 % of control | dose: 4.0 % in 0.5 ml injection vol, schedule: Q01DX009 (ip), vehicle: water 102 % of control and 104 % of control and 108 % of control | dose: 8.0 % in 0.5 ml injection vol, schedule: Q01DX009 (ip), vehicle: water 102 % of control and 109 % of control and 92 % of control | dose: 16.0 % in 0.5 ml injection vol, schedule: Q01DX009 (ip), vehicle: water 100 % of control and 103 % of control and 95 % of control

C=C1SC(=Nc2c(C)cc(C)cc2C)N(C(=O)c2sc3ccccc3c2Cl)C12CCCCC2
inactive: dose: 50.0 mg/kg/injection, schedule: Q01DX009 (ip), vehicle: suspension in saline 96 % of control | dose: 100.0 mg/kg/injection, schedule: Q01DX009 (ip), vehicle: suspension in saline 103 % of control | dose: 200.0 mg/kg/injection, schedule: Q01DX009 (ip), vehicle: suspension in saline 91 % of control

Cc1cc(Br)c(O)c(C(=NCC(C)N=C(c2ccccc2)c2cc(C)cc(Br)c2O)c2ccccc2)c1 (configuration not stated)
inactive: [4] 100 % of control | [1] 96 % of control | [2] 100 % of control | [3] 96 % of control

O/N=C/c1cnns1
inactive: [5] 105 % of control | [6] 100 % of control | [7] 100 % of control

Cc1cccc(C2(Br)C(=O)c3ccccc3C2=O)c1
inactive: dose: 100.0 mg/kg/injection, schedule: Q04DX002 (ip), vehicle: saline 102 % of control | dose: 200.0 mg/kg/injection, schedule: Q04DX002 (ip), vehicle: saline 103 % of control | dose: 400.0 mg/kg/injection, schedule: Q04DX002 (ip), vehicle: saline 102 % of control

CCn1c2ccc(N=C=O)cc2c2c3[nH]c(=O)c4cccn4c3ccc21
inactive: [5] 95 % of control | [6] 88 % of control | [7] 86 % of control

O=c1c2cc3c(=O)n(CC#CCN4CCCCC4)c(=O)c3cc2c(=O)n1CC#CCN1CCCCC1
inactive: [5] 100 % of control | [6] 100 % of control | [7] 98 % of control

CC1CC(c2ccc(Cl)cc2)C(c2ccc(Cl)cc2)C(=O)O1 (configuration not stated)
inactive: [8] 90 % of control

c1ccc2c3c([nH]c2c1)CN1CCCCC1C3 (configuration not stated)
inactive: dose: 6.25 mg/kg/injection, schedule: Q01DX005 (ip), vehicle: Klucel (hydroxypropylcellulose) (HPC) 92 % of control | dose: 12.5 mg/kg/injection, schedule: Q01DX005 (ip), vehicle: Klucel (hydroxypropylcellulose) (HPC) 92 % of control | [4] 93 % of control | [1] 99 % of control | [2] 96 % of control | [3] 112 % of control

COc1cc2c3cc1Oc1c(OC)c(OC)cc4c1C(Cc1ccc(cc1)Oc1cc(ccc1O)CC3N(C)CC2)N(C)CC4 (configuration not stated)
inactive: dose: 12.5 mg/kg/injection, schedule: Q01DX009 (ip), vehicle: Klucel (hydroxypropylcellulose) (HPC) 97 % of control | dose: 25.0 mg/kg/injection, schedule: Q01DX009 (ip), vehicle: Klucel (hydroxypropylcellulose) (HPC) 97 % of control | [9] 94 % of control | [8] 105 % of control

Nc1ccc(O)c2c1C(=O)c1c(O)ccc(N)c1C2=O
inactive: [1] 100 % of control | [2] 105 % of control | [3] 87 % of control

CCNc1nc(Cl)nc(NCC)n1
inactive: dose: 100.0 mg/kg/injection, schedule: Q01DX009 (ip), vehicle: saline 98 % of control | dose: 200.0 mg/kg/injection, schedule: Q01DX009 (ip), vehicle: saline 91 % of control | dose: 400.0 mg/kg/injection, schedule: Q01DX009 (ip), vehicle: saline 94 % of control

Cc1cc(=O)[nH]c2c1CCCC2
inactive: dose: 100.0 mg/kg/injection, schedule: Q04DX003 (ip), vehicle: saline sonified 107 % of control | dose: 200.0 mg/kg/injection, schedule: Q04DX003 (ip), vehicle: saline sonified 96 % of control | dose: 400.0 mg/kg/injection, schedule: Q04DX003 (ip), vehicle: saline sonified 92 % of control

C=CCn1cc(F)c(=O)[nH]c1=O
inactive: dose: 30.0 mg/kg/injection, schedule: Q04DX002 (ip), vehicle: saline 97 % of control | dose: 60.0 mg/kg/injection, schedule: Q04DX002 (ip), vehicle: saline 100 % of control | dose: 120.0 mg/kg/injection, schedule: Q04DX002 (ip), vehicle: saline 104 % of control | dose: 150.0 mg/kg/injection, schedule: Q04DX002 (ip), vehicle: saline 100 % of control | dose: 240.0 mg/kg/injection, schedule: Q04DX002 (ip), vehicle: saline 99 % of control | dose: 300.0 mg/kg/injection, schedule: Q04DX002 (ip), vehicle: saline 98 % of control | dose: 600.0 mg/kg/injection, schedule: Q04DX002 (ip), vehicle: saline 106 % of control

C(=Nc1ccc(N=Cc2ccccc2P(c2ccccc2)c2ccccc2)cc1)c1ccccc1P(c1ccccc1)c1ccccc1
inactive: [9] 99 % of control | [8] 99 % of control | dose: 200.0 mg/kg/injection, schedule: Q01DX009 (ip), vehicle: Klucel (hydroxypropylcellulose) (HPC) 99 % of control

COc1cc(N=Nc2cc(CN(C)C)c(O)c3ncccc23)c(OC)cc1N=Nc1c(Cl)cc([N+](=O)[O-])cc1Cl
inactive: [5] 104 % of control | [6] 100 % of control | [7] 109 % of control

CN=NNc1ccc(C#N)cc1
inactive: dose: 100.0 mg/kg/injection, schedule: Q01DX001 (ip), vehicle: Klucel (hydroxypropylcellulose) (HPC) 98 % of control | dose: 200.0 mg/kg/injection, schedule: Q01DX001 (ip), vehicle: Klucel (hydroxypropylcellulose) (HPC) 98 % of control | dose: 400.0 mg/kg/injection, schedule: Q01DX001 (ip), vehicle: Klucel (hydroxypropylcellulose) (HPC) 95 % of control

O=C(CBr)c1cccc([N+](=O)[O-])c1
inactive: dose: 6.25 mg/kg/injection, schedule: Q01DX009 (ip), vehicle: saline with Tween-80 101 % of control | dose: 12.5 mg/kg/injection, schedule: Q01DX009 (ip), vehicle: saline with Tween-80 100 % of control | dose: 25.0 mg/kg/injection, schedule: Q01DX009 (ip), vehicle: saline with Tween-80 109 % of control | dose: 50.0 mg/kg/injection, schedule: Q01DX009 (ip), vehicle: saline with Tween-80 100 % of control

CCCC(C)N(CC)CCNc1cc(OC)cc2cccnc12 (configuration not stated)
inactive: dose: 50.0 mg/kg/injection, schedule: Q01DX005 (ip), vehicle: saline 106 % of control | dose: 100.0 mg/kg/injection, schedule: Q01DX005 (ip), vehicle: saline 88 % of control

NNc1nccnc1Cl
inactive: dose: 50.0 mg/kg/injection, schedule: Q01DX001 (ip), vehicle: saline with Tween-80 102 % of control | dose: 100.0 mg/kg/injection, schedule: Q01DX001 (ip), vehicle: saline with Tween-80 97 % of control | dose: 200.0 mg/kg/injection, schedule: Q01DX001 (ip), vehicle: saline with Tween-80 108 % of control
